Assay results published in ChEMBL document CHEMBL1201862, “PubChem BioAssay data set” (2004).
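Assay format: 96-well plates, 48-hour exposure. At the GI50, growth is halved.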 Active and inactive are the calls of the source. Rule as the data show it: active = GI50 up to about 1.1 µM and inactive = higher.

How the values were obtained:
Assay in all cases: DTP human tumour cell line panel, 48 h
[1] = tested on: K562
[2] = tested on: SK-MEL-28
[3] = tested on: SW-620
[4] = tested on: ACHN
[5] = tested on: OVCAR-3
[6] = tested on: HCC 2998
[7] = tested on: CCRF-CEM
[8] = tested on: SN12C
[9] = tested on: A498
[10] = tested on: NCI-H460
[11] = tested on: NCI-H23
[12] = tested on: 786-0
[13] = tested on: A549
[14] = tested on: OVCAR-4
[15] = tested on: MCF7
[16] = tested on: KM12
[17] = tested on: UACC-257
[18] = tested on: RXF 393
[19] = tested on: BT-549
[20] = tested on: RPMI-8226
[21] = tested on: Hs-578T
[22] = tested on: UACC-62
[23] = tested on: COLO 205
[24] = tested on: MOLT-4
[25] = tested on: SK-MEL-2
[26] = tested on: T47D
[27] = tested on: OVCAR-8
[28] = tested on: SNB-19
[29] = tested on: TK-10
[30] = tested on: UO-31
[31] = tested on: Malme-3M
[32] = tested on: NCI-H226
[33] = tested on: DU-145
[34] = tested on: CAKI-1
[35] = tested on: MDA-MB-435
[36] = tested on: HT-29
[37] = tested on: U-251
[38] = tested on: SK-MEL-5
[39] = tested on: HCT-116
[40] = tested on: SF-539
[41] = tested on: MDA-MB-231
[42] = tested on: SR
[43] = tested on: HOP-62
[44] = tested on: SF-295
[45] = tested on: NCI/ADR-RES
[46] = tested on: M14
[47] = tested on: EKVX
[48] = tested on: SK-OV-3
[49] = tested on: SF-268
[50] = tested on: HCT-15
[51] = tested on: MDA-N
[52] = tested on: HL-60
[53] = tested on: NCI-H522
[54] = tested on: HOP-92
[55] = tested on: LOX IMVI
[56] = tested on: OVCAR-5
[57] = tested on: PC-3
[58] = tested on: SNB-75
[59] = tested on: IGROV-1

**Q.** Which results are given for `COc1cc(/C=C2\C(=O)N(c3ccccc3)C(c3ccccc3)S2(=O)=O)cc(OC)c1OC` (centres undefined)?
**A.** GI50 [1]: 27 µM (inactive); GI50 [2]: 51.6 µM (inactive); GI50 [3]: 51.3 µM (inactive); GI50 [4]: > 100 µM (inactive); GI50 [5]: 36 µM (inactive); GI50 [6]: 64.6 µM (inactive); GI50 [7]: 10.6 µM (inactive); GI50 [8]: 39.4 µM (inactive); GI50 [9]: > 100 µM (inactive); GI50 [10]: 54 µM (inactive); GI50 [11]: 39.1 µM (inactive); GI50 [12]: 69.5 µM (inactive); GI50 [13]: 43.8 µM (inactive); GI50 [14]: 27.5 µM (inactive); GI50 [15]: 31.2 µM (inactive); GI50 [16]: 38.4 µM (inactive); GI50 [17]: 32.1 µM (inactive); GI50 [18]: 17.1 µM (inactive); GI50 [19]: 35.6 µM (inactive); GI50 [20]: 17.2 µM (inactive); GI50 [21]: 70.3 µM (inactive); GI50 [22]: 30.1 µM (inactive); GI50 [23]: 23.3 µM (inactive); GI50 [24]: 34 µM (inactive); GI50 [25]: 42.6 µM (inactive); GI50 [26]: 36.1 µM (inactive); GI50 [27]: 21.3 µM (inactive); GI50 [28]: 31 µM (inactive); GI50 [29]: 65 µM (inactive); GI50 [30]: 22.9 µM (inactive); GI50 [31]: 53.1 µM (inactive); GI50 [32]: 46.8 µM (inactive); GI50 [33]: 37.9 µM (inactive); GI50 [34]: 88.7 µM (inactive); GI50 [35]: 27 µM (inactive); GI50 [36]: 19.5 µM (inactive); GI50 [37]: 28.6 µM (inactive); GI50 [38]: 17.6 µM (inactive); GI50 [39]: 21.1 µM (inactive); GI50 [40]: 45.1 µM (inactive); GI50 [41]: 97.5 µM (inactive); GI50 [42]: 24.5 µM (inactive); GI50 [43]: 70.6 µM (inactive); GI50 [44]: > 100 µM (inactive); GI50 [45]: 28.4 µM (inactive); GI50 [46]: 35.2 µM (inactive); GI50 [47]: 24.2 µM (inactive); GI50 [48]: 62.7 µM (inactive); GI50 [49]: > 100 µM (inactive); GI50 [50]: 37.9 µM; GI50 [51]: 16.4 µM (inactive); GI50 [52]: 7.36 µM (inactive); GI50 [53]: 29.7 µM (inactive); GI50 [54]: 33 µM (inactive); GI50 [55]: 31.4 µM (inactive); GI50 [56]: > 100 µM (inactive)

**Q.** What does the source list for `NC(=O)c1cc2ccccc2c(/N=N/c2ccccc2)c1O`?
**A.** GI50 [1]: 71.9 µM (inactive); GI50 [2]: > 100 µM (inactive); GI50 [3]: > 100 µM (inactive); GI50 [5]: 88.1 µM (inactive); GI50 [7]: > 100 µM (inactive); GI50 [8]: > 100 µM (inactive); GI50 [9]: > 100 µM (inactive); GI50 [11]: > 100 µM (inactive); GI50 [12]: 9.31 µM (inactive); GI50 [57]: > 100 µM (inactive); GI50 [13]: > 100 µM (inactive); GI50 [14]: 19.4 µM (inactive); GI50 [16]: 28.6 µM (inactive); GI50 [17]: > 100 µM (inactive); GI50 [18]: > 100 µM (inactive); GI50 [19]: > 100 µM (inactive); GI50 [20]: 59.6 µM (inactive); GI50 [21]: 93.3 µM (inactive); GI50 [22]: > 100 µM (inactive); GI50 [23]: > 100 µM (inactive); GI50 [24]: 76.7 µM (inactive); GI50 [25]: > 100 µM (inactive); GI50 [26]: > 100 µM (inactive); GI50 [27]: 29.9 µM (inactive); GI50 [28]: > 100 µM (inactive); GI50 [29]: > 100 µM (inactive); GI50 [30]: > 100 µM (inactive); GI50 [31]: > 100 µM (inactive); GI50 [32]: > 100 µM (inactive); GI50 [33]: > 100 µM (inactive); GI50 [34]: 23.5 µM (inactive); GI50 [35]: > 100 µM (inactive); GI50 [58]: > 100 µM (inactive); GI50 [36]: 7.87 µM (inactive); GI50 [37]: 9.59 µM (inactive); GI50 [38]: > 100 µM (inactive); GI50 [39]: 14.1 µM (inactive); GI50 [41]: 35.6 µM (inactive); GI50 [42]: > 100 µM (inactive); GI50 [43]: 22.6 µM (inactive); GI50 [44]: > 100 µM (inactive); GI50 [45]: 76.2 µM (inactive); GI50 [46]: > 100 µM (inactive); GI50 [47]: 39.4 µM (inactive); GI50 [48]: 76.6 µM (inactive); GI50 [49]: 52.7 µM (inactive); GI50 [50]: > 100 µM; GI50 [51]: > 100 µM (inactive); GI50 [53]: 38.7 µM (inactive); GI50 [54]: 12.5 µM (inactive); GI50 [55]: > 100 µM (inactive); GI50 [56]: > 100 µM (inactive); GI50 [59]: > 100 µM (inactive)
